Publication PMC6001238, “Iterative Chemical Engineering of Vancomycin Leads to Novel Vancomycin Analogs With a High in Vitro Therapeutic Index” (Frontiers in Microbiology, 2018)
≈ marks a conversion by molar mass, not a printed value. Where two headings read alike, the source gives them in different places.

Columns and labels:
[1] = system: E. faecalis VRE 29; experiment: MIC, broth microdilution, vancomycin-resistant E. faecalis VRE 29 (VanA); format: cell-based, Enterococcus faecalis; conditions: for MIC: Enterococcus faecalis VRE 29 (vancomycin-resistant), read-out: MIC; for MIC-fold improvement vs. vancomycin: VRE 29, ratio of MIC of vancomycin and MIC of analogue
Summary of the method: (§1)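 Controls (ultrapure water; broth not inoculated) were included throughout CLSI-compliant broth microdilution. One condition supplemented analogue or comparator with 10 μM vancomycin, final level.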

[2] = system: MRSA KS89; experiment: MIC, broth microdilution, MRSA KS89; format: cell-based, Staphylococcus aureus; conditions: for MIC-fold improvement vs. vancomycin: MRSA KS8, ratio of MIC of vancomycin and MIC of analogue; for MIC: Staphylococcus aureus MRSA KS8, read-out: MIC
Summary of the method: as §1

[3] = system: S. aureus VRSA; experiment: MIC, broth microdilution, vancomycin-resistant S. aureus (VRSA); format: cell-based, Staphylococcus aureus; conditions: for MIC: Staphylococcus aureus VRSA, read-out: MIC; for MIC-fold improvement vs. vancomycin: VRSA, ratio of MIC of vancomycin and MIC of analogue
Summary of the method: as §1

[4] = system: Clostridium difficile AIU ribotype 027; experiment: MIC, plate drop assay, C. difficile AIU ribotype 027; format: cell-based; conditions: C. difficile AIU ribotype 027
Summary of the method: (§2)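 Lawns of each strain were made in soft BHI agar (0.4%) supplemented with CaCl2⋅2H2O and MgCl2⋅6H2O. Twofold compound dilutions (10 μL) were spotted, air-dried and incubated overnight at 37°C anaerobically; MIC read as cleared spots, in triplicate with water as negative control.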

[5] = system: MRSA KS2; experiment: MIC, broth microdilution, MRSA KS2; format: cell-based, Staphylococcus aureus; conditions: for MIC-fold improvement vs. vancomycin: MRSA KS2, ratio of MIC of vancomycin and MIC of analogue; for MIC: Staphylococcus aureus MRSA KS2, read-out: MIC
Summary of the method: as §1

[6] = system: B. subtilis PSB3; experiment: MIC, broth microdilution, B. subtilis PSB3; format: cell-based, Bacillus subtilis; conditions: for MICvanc/MICi: ratio of MIC of vancomycin and MIC of analogue
Experimental: (§3) The minimum inhibitory concentration (MIC) was determined using the broth microdilution method according to the antimicrobial susceptibility testing standards of the clinical and laboratory standards institute ([Clinical and Laboratory Standards Institute [CLSI], 2012]). Ultrapure water and non-inoculated broth were used as controls. In one case, a final concentration of 10 μM vancomycin was included with the vancomycin analog or control antibiotic.

[7] = system: S. aureus VSSA (ATCC 6538); experiment: MIC, broth microdilution, vancomycin-sensitive S. aureus (VSSA/MSSA, ATCC 6538); format: cell-based, Staphylococcus aureus; conditions: for MIC: Staphylococcus aureus VSSA, read-out: MIC; for MIC-fold improvement vs. vancomycin: VSSA, ratio of MIC of vancomycin and MIC of analogue
Summary of the method: as §1

[8] = system: E. faecalis VRE 37; experiment: MIC, broth microdilution, vancomycin-resistant E. faecalis VRE 37 (VanA); format: cell-based, Enterococcus faecalis; conditions: Enterococcus faecalis VRE 37 (vancomycin-resistant); read-out: MIC
Summary of the method: as §1

[9] = system: human cervix carcinoma (HeLa) cells; experiment: Cytostatic activity, HeLa cell proliferation; format: cell-based; conditions: mean ± SD of three experiments; highest concentration tested 250 µM; 4 days; read-out: Toxicity (IC50) HeLa
Summary of the method: (§4)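 Coulter counter cell counts after 37°C culture with compound; IC50 = concentration giving 50% growth inhibition vs negative control. Incubation: L1210 2 d, CEM 3 d, HeLa 4 d. Suspension density before mixing with an equal volume of dilution: 300,000–500,000 cells/mL.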

[10] = system: MRSA KS6; experiment: MIC, broth microdilution, MRSA KS6; format: cell-based, Staphylococcus aureus; conditions: for MIC-fold improvement vs. vancomycin: MRSA KS6, ratio of MIC of vancomycin and MIC of analogue; for MIC: Staphylococcus aureus MRSA KS6, read-out: MIC
Summary of the method: as §1

[11] = system: Murine leukemia (L1210) cells; experiment: Cytostatic activity, L1210 cell proliferation; format: cell-based; conditions: mean ± SD of three experiments; highest concentration tested 250 µM; 2 days; read-out: Toxicity (IC50) L1210
Summary of the method: as §4

[12] = system: human T-lymphocyte (CEM) cells; experiment: Cytostatic activity, CEM cell proliferation; format: cell-based; conditions: mean ± SD of three experiments; highest concentration tested 250 µM; 3 days; read-out: Toxicity (IC50) CEM
Summary of the method: as §4

[13] = system: Clostridium difficile ATJ ribotype 014/20; experiment: MIC, plate drop assay, C. difficile ATJ ribotype 014/20; format: cell-based; conditions: C. difficile ATJ ribotype 014/20
Summary of the method: as §2

[14] = system: S. aureus VISA/HIP5827; experiment: MIC, broth microdilution, vancomycin-intermediate S. aureus VISA HIP5827; format: cell-based, Staphylococcus aureus; conditions: for MIC: Staphylococcus aureus VISA/HIP5827, read-out: MIC; for MIC-fold improvement vs. vancomycin: VISA/HIP5827, ratio of MIC of vancomycin and MIC of analogue
Summary of the method: as §1

[15] = system: E. faecalis VRE 53; experiment: MIC, broth microdilution, vancomycin-resistant E. faecalis VRE 53 (VanA); format: cell-based, Enterococcus faecalis; conditions: for MICvanc/MICi / MIC-fold improvement vs. vancomycin: ratio of MIC of vancomycin and MIC of analogue; for MIC: read-out: MIC; for MIC-fold improvement vs. vancomycin: VRE 53
Summary of the method: as §1

[16] = system: L1210, CEM and HeLa cell lines; experiment: Cytostatic activity, average or summary over L1210, CEM and HeLa; format: cell-based
Summary of the method: as §4

[17] = system: MRSA KS1; experiment: MIC, broth microdilution, MRSA KS1; format: cell-based, Staphylococcus aureus; conditions: for MIC-fold improvement vs. vancomycin: MRSA KS1, ratio of MIC of vancomycin and MIC of analogue; for MIC: Staphylococcus aureus MRSA KS1, read-out: MIC
Summary of the method: as §1

[18] = system: E. faecalis VRE 6; experiment: MIC, broth microdilution, vancomycin-resistant E. faecalis VRE 6 (VanA); format: cell-based, Enterococcus faecalis; conditions: for MICvanc/MICi / MIC-fold improvement vs. vancomycin: ratio of MIC of vancomycin and MIC of analogue; for MIC: read-out: MIC; for MIC-fold improvement vs. vancomycin: VRE 6
Summary of the method: as §1

[19] = system: E. coli XL-1 blue MRF'; experiment: MIC, broth microdilution, E. coli XL-1 blue MRF'; format: cell-based, Escherichia coli; conditions: E. coli XL-1 blue MRF'; for MICvanc/MICi: ratio of MIC of vancomycin and MIC of analogue
Experimental: as §3

[20] = system: E. faecalis VSE 1; experiment: MIC, broth microdilution, vancomycin-sensitive E. faecalis (VSE 1); format: cell-based, Enterococcus faecalis; conditions: for MICvanc/MICi / MIC-fold improvement vs. vancomycin: ratio of MIC of vancomycin and MIC of analogue; for MIC: read-out: MIC; for MIC-fold improvement vs. vancomycin: VSE 1
Summary of the method: as §1

[21] = Enterococcus faecalis VRE 53 (vancomycin-resistant)
[22] = average of L1210, CEM and HeLa, read-out: Toxicity (IC50) Average
[23] = Enterococcus faecalis VRE 6 (vancomycin-resistant)
[24] = Enterococcus faecalis VSE 1 (vancomycin-sensitive)

SMILES | MIC [1] [µM] | MIC-fold improvement vs. vancomycin [1] | MIC-fold improvement vs. vancomycin [2] | MIC [2] [µM] | MIC [3] [µM] | MIC-fold improvement vs. vancomycin [3] | MIC-fold improvement vs. vancomycin [5] | MIC [5] [µM] | MIC [6] [µM] | MICvanc/MICi [6] | MIC [7] [µM] | MIC-fold improvement vs. vancomycin [7] | MIC [8] [µM] | IC50 [9] [µM] | MIC-fold improvement vs. vancomycin [10] | MIC [10] [µM] | IC50 [11] [µM] | IC50 [12] [µM] | MIC [14] [µM] | MIC-fold improvement vs. vancomycin [14] | also measured
C#Cc1ccc(NC(=O)CNC(=O)C2NC(=O)C3NC(=O)C(NC(=O)C4NC(=O)C(CC(N)=O)NC(=O)C(NC(=O)C(CC(C)C)NC)C(O)c5ccc(c(Cl)c5)Oc5cc4cc(c5OC4OC(CO)C(O)C(O)C4OC4CC(C)(N)C(O)C(C)O4)Oc4ccc(cc4Cl)C3O)c3ccc(O)c(c3)-c3c(O)cc(O)cc32)cc1 (centres unmarked) [Vanc-N] | 6.25 (≈ 10 µg/mL) | 64 | 2 | 0.39 (≈ 0.626 µg/mL) | 1.56 (≈ 2.5 µg/mL) | 64 | 2 | 0.39 (≈ 0.626 µg/mL) | 0.20 (≈ 0.321 µg/mL) | 2 | 0.10 (≈ 0.161 µg/mL) | 8 | 25 (≈ 40.1 µg/mL) | > 250 | 2 | 0.39 (≈ 0.626 µg/mL) | > 250 | > 250 | 0.78 (≈ 1.25 µg/mL) | 8 | MIC-fold improvement vs. vancomycin [4]: 29; MIC-fold improvement vs. vancomycin [13]: 5.6; MICvanc/MICi ([15]; E. faecalis VRE 53): 64; MIC ([15]; E. faecalis VRE 53): 6.25 µM (≈ 10 µg/mL); MIC [15, 21]: 6.25 µM (≈ 10 µg/mL); MIC-fold improvement vs. vancomycin [15]: 64; IC50 [16, 22]: > 250 µM; IC50 ([16]; summary over the three cell lines, read-out: IC50 (L1210, CEM, HeLa), depending on the cell line used): > 250 µM; MIC-fold improvement vs. vancomycin [17]: 4; MIC [17]: 0.20 µM (≈ 0.321 µg/mL); MICvanc/MICi ([18]; E. faecalis VRE 6): 64; MIC ([18]; E. faecalis VRE 6): 3.13 µM (≈ 5.03 µg/mL); MIC [18, 23]: 3.13 µM (≈ 5.03 µg/mL); MIC-fold improvement vs. vancomycin [18]: 64; MIC [19]: 50 µM (≈ 80.3 µg/mL); MICvanc/MICi [19]: 2; MICvanc/MICi ([20]; E. faecalis VSE 1): 16; MIC ([20]; E. faecalis VSE 1): 0.10 µM (≈ 0.161 µg/mL); MIC [20, 24]: 0.10 µM (≈ 0.161 µg/mL); MIC-fold improvement vs. vancomycin [20]: 16
C#Cc1ccc2cc(C(=O)NCCCNC(=O)[C@H]3NC(=O)[C@H]4NC(=O)[C@H](NC(=O)[C@@H]5NC(=O)[C@H](CC(N)=O)NC(=O)[C@H](NC(=O)[C@@H](CC(C)C)NC)[C@H](O)c6ccc(c(Cl)c6)Oc6cc5cc(c6O[C@@H]5O[C@H](CO)[C@@H](O)[C@H](O)[C@H]5O[C@H]5C[C@](C)(N)[C@H](O)[C@H](C)O5)Oc5ccc(cc5Cl)[C@H]4O)c4ccc(O)c(c4)-c4c(O)cc(O)cc43)ccc2c1 [Vanc-T] | 12.5 (≈ 21 µg/mL) | 32 | 4 | 0.20 (≈ 0.337 µg/mL) | 1.56 (≈ 2.63 µg/mL) | 64 | 4 | 0.20 (≈ 0.337 µg/mL) | 0.39 (≈ 0.657 µg/mL) | 1 | 0.10 (≈ 0.168 µg/mL) | 8 | 25 (≈ 42.1 µg/mL) | 75 ± 20 | 2 | 0.39 (≈ 0.657 µg/mL) | 77 ± 17 | 60 ± 10 | 1.56 (≈ 2.63 µg/mL) | 4 | MICvanc/MICi ([15]; E. faecalis VRE 53): 128; MIC ([15]; E. faecalis VRE 53): 3.13 µM (≈ 5.27 µg/mL); MIC [15, 21]: 3.13 µM (≈ 5.27 µg/mL); MIC-fold improvement vs. vancomycin [15]: 128; IC50 [16, 22]: 71 µM; MIC-fold improvement vs. vancomycin [17]: 4; MIC [17]: 0.20 µM (≈ 0.337 µg/mL); MICvanc/MICi ([18]; E. faecalis VRE 6): 64; MIC ([18]; E. faecalis VRE 6): 3.13 µM (≈ 5.27 µg/mL); MIC [18, 23]: 3.13 µM (≈ 5.27 µg/mL); MIC-fold improvement vs. vancomycin [18]: 64; MIC [19]: 25 µM (≈ 42.1 µg/mL); MICvanc/MICi [19]: 4; MICvanc/MICi ([20]; E. faecalis VSE 1): 32; MIC ([20]; E. faecalis VSE 1): 0.05 µM (≈ 0.0842 µg/mL); MIC [20, 24]: 0.05 µM (≈ 0.0842 µg/mL); MIC-fold improvement vs. vancomycin [20]: 32
